In general, Ki refers to the dissociation constant of the complex between target and ligand, obtained from inhibition or displacement.

We go through 15 compounds from patent publication US12485157B2, “Method of treating COVID-19” (Pfizer Inc., priority 2020, dated 2025).

This test deals with SARS-CoV-2 3CL protease (Severe acute respiratory syndrome coronavirus 2 (2019-nCoV) (SARS-CoV-2), UniProt P0DTD1). Put plainly: SARS-CoV-2 Coronavirus 3C Protease FRET Assay. The test is classed as biochemical. Particulars: for Ki: read-out: 3CL Protease Geometric Mean Ki.

Structures are written as SMILES.

As to `COc1cccc2[nH]c(C(=O)N[C@@H](CC(C)C)C(=O)N[C@@H](C[C@@H]3CCNC3=O)C(=O)COC(=O)c3ccc(C#N)cc3F)cc12` [Example 14, (3S)-3-({N-[(4-methoxy-1H-indol-2-yl)carbonyl]-L-leucyl}amino)-2-oxo-4-[(3S)-2-oxopyrrolidin-3-yl]butyl 4-cyano-2-fluorobenzoate], the Ki amounted to 0.2 nM.

Regarding `COc1cccc2[nH]c(C(=O)N[C@@H](CC(C)C)C(=O)N[C@@H](C[C@@H]3CCNC3=O)C(=O)COC(=O)c3ccc(Cl)cc3)cc12` [Example 8, (3S)-3-({N-[(4-methoxy-1H-indol-2-yl)carbonyl]-L-leucyl}amino)-2-oxo-4-[(3S)-2-oxopyrrolidin-3-yl]butyl 4-chlorobenzoate], the Ki came out at 18.8 nM.

Take `COc1ccc(C(=O)OCC(=O)[C@H](C[C@@H]2CCNC2=O)NC(=O)[C@H](CC(C)C)NC(=O)c2cc3c(OC)cccc3[nH]2)cc1` [Example 7, (3S)-3-({N-[(4-methoxy-1H-indol-2-yl)carbonyl]-L-leucyl}amino)-2-oxo-4-[(3S)-2-oxopyrrolidin-3-yl]butyl 4-methoxybenzoate]: the Ki amounted to 33.4 nM.

`COc1cccc2[nH]c(C(=O)N[C@@H](CC(C)C)C(=O)N[C@@H](C[C@@H]3CCNC3=O)C(=O)COC(=O)c3ccccc3C#N)cc12` [Example 15, (3S)-3-({N-[(4-methoxy-1H-indol-2-yl)carbonyl]-L-leucyl}amino)-2-oxo-4-[(3S)-2-oxopyrrolidin-3-yl]butyl 2-cyanobenzoate]: the Ki was determined as 0.4 nM.

Take `COc1cccc2[nH]c(C(=O)N[C@@H](CC(C)C)C(=O)N[C@@H](C[C@@H]3CCNC3=O)C(=O)COC(=O)c3ccc(C)cc3)cc12` [Example 4, (3S)-3-({N-[(4-methoxy-1H-indol-2-yl)carbonyl]-L-leucyl}amino)-2-oxo-4-[(3S)-2-oxopyrrolidin-3-yl]butyl 4-methylbenzoate]: the Ki was determined as 17.7 nM.

As for `COc1cccc2[nH]c(C(=O)N[C@@H](CC(C)C)C(=O)N[C@@H](C[C@@H]3CCNC3=O)C(=O)COC(=O)c3ccc(C#N)cc3)cc12` [Example 6, (3S)-3-({N-[(4-methoxy-1H-indol-2-yl)carbonyl]-L-leucyl}amino)-2-oxo-4-[(3S)-2-oxopyrrolidin-3-yl]butyl 4-cyanobenzoate], the Ki amounted to 1.9 nM.

As for `COc1cccc2[nH]c(C(=O)N[C@@H](CC(C)C)C(=O)N[C@@H](C[C@@H]3CCNC3=O)C(=O)COC(=O)c3ccccc3)cc12` [Example 3, (3S)-3-({N-[(4-methoxy-1H-indol-2-yl)carbonyl]-L-leucyl}amino)-2-oxo-4-[(3S)-2-oxopyrrolidin-3-yl]butyl benzoate], the inhibition constant (Ki) worked out at 233 nM.

Take `COc1cccc2[nH]c(C(=O)N[C@@H](CC(C)C)C(=O)N[C@@H](C[C@@H]3CCNC3=O)C(=O)COC(=O)c3c(C)cccc3C)cc12` [Example 10, (3S)-3-({N-[(4-methoxy-1H-indol-2-yl)carbonyl]-L-leucyl}amino)-2-oxo-4-[(3S)-2-oxopyrrolidin-3-yl]butyl 2,6-dimethylbenzoate]: the inhibitory constant (Ki) amounted to 3.4 nM.

As for `COc1cccc2[nH]c(C(=O)N[C@@H](CC(C)C)C(=O)N[C@@H](C[C@@H]3CCNC3=O)C(=O)COC(=O)c3ccc(F)cc3)cc12` [Example 5, (3S)-3-({N-[(4-methoxy-1H-indol-2-yl)carbonyl]-L-leucyl}amino)-2-oxo-4-[(3S)-2-oxopyrrolidin-3-yl]butyl 4-fluorobenzoate], the Ki was determined as 16.3 nM.

As for `COc1cccc2[nH]c(C(=O)N[C@@H](CC(C)C)C(=O)N[C@@H](C[C@@H]3CCNC3=O)C(=O)CO)cc12` [PF-835231, reference compound], under “FRET assay control inhibitor”, the “inhibition of SARS-CoV-2 3CLpro (fluorescent signal reduced)” value is reported as “potent inhibitor”.

As for `COc1cccc(OC)c1C(=O)OCC(=O)[C@H](C[C@@H]1CCNC1=O)NC(=O)[C@H](CC(C)C)NC(=O)c1cc2c(OC)cccc2[nH]1` [Example 12, (3S)-3-({N-[(4-methoxy-1H-indol-2-yl)carbonyl]-L-leucyl}amino)-2-oxo-4-[(3S)-2-oxopyrrolidin-3-yl]butyl 2,6-dimethoxybenzoate], the Ki was found to be 15.7 nM.

For `COc1cccc2[nH]c(C(=O)N[C@@H](CC(C)C)C(=O)N[C@@H](C[C@@H]3CCNC3=O)C(=O)COC(=O)c3c(Cl)cccc3Cl)cc12` [Example 9, (3S)-3-({N-[(4-methoxy-1H-indol-2-yl)carbonyl]-L-leucyl}amino)-2-oxo-4-[(3S)-2-oxopyrrolidin-3-yl]butyl 2,6-dichlorobenzoate], the inhibitory constant (Ki) came out at 0.3 nM.

Consider `COc1cccc2[nH]c(C(=O)N[C@@H](CC(C)C)C(=O)N[C@@H](C[C@@H]3CCNC3=O)C(=O)COC(=O)C(C)(C)C)cc12` [Example 2, (3S)-3-({N-[(4-methoxy-1H-indol-2-yl)carbonyl]-L-leucyl}amino)-2-oxo-4-[(3S)-2-oxopyrrolidin-3-yl]butyl pivalate], for which the inhibition constant Ki stood at 94.1 nM.

As for `COc1cccc2[nH]c(C(=O)N[C@@H](CC(C)C)C(=O)N[C@@H](C[C@@H]3CCNC3=O)C(=O)COC(=O)c3c(F)cccc3F)cc12` [Example 11, (3S)-3-({N-[(4-methoxy-1H-Indol-2-yl)carbonyl]-L-leucyl}amino)-2-oxo-4-[(3S)-2-oxopyrrolidin-3-yl]butyl 2,6-difluorobenzoate], the Ki came to 1.3 nM.

Consider `COc1cccc2[nH]c(C(=O)N[C@@H](CC(C)C)C(=O)N[C@@H](C[C@@H]3CCNC3=O)C(=O)COC(C)=O)cc12` [Example 1, (3S)-3-({N-[(4-methoxy-1H-indol-2-yl)carbonyl]-L-leucyl}amino)-2-oxo-4-[(3S)-2-oxopyrrolidin-3-yl]butyl acetate], for which the Ki came out at 19.4 nM.
